Test in all cases: post-emergent herbicidal activity, greenhouse
Assay type in all cases: in vivo
Common to all, as to details: Table I

Experiment [1] concerns Smartweed. The method, boiled down:
(§1)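 Post-emergence foliar spray at tabulated application rates, using aliquots of a 1.0% stock in acetone, THF or water plus ~0.4% emulsifier, applied to 2–3-week-old greenhouse plants. Plant injury was rated relative to controls roughly two and four weeks after treatment.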

Experiment [2] has as its system Quackgrass. In outline: as §1
Experiment [3] has as its system Velvetleaf. In outline: as §1
In experiment [4] the test system is Morningglory. In outline: as §1
Experiment [5] relates to Cocklebur. The method, boiled down: as §1
In experiment [6] the test system is Yellow Nutsedge. The method, boiled down: as §1
The test system of experiment [7] is Lambsquarters. The method, boiled down:
as §1

In experiment [8] the test system is Canada Thistle. In outline: as §1
Experiment [9] relates to Downy Brome. The method, boiled down: as §1
Experiment [10] has as its system Johnsongrass. In outline:
as §1

For experiment [11], the system named is Barnyardgrass. In outline:
as §1

We go through two compounds from patent publication US4442044A, “Process for preparing monoesters and diesters of N-alkyl substituted amino methyl phosphonic acid” (priority 1983, dated 1984).

On to `CCOC(=O)CNCP(=O)(OCC1CCCCO1)OCC1CCCCO1` (stereo not shown) [Example 23, glycine, N-[[bis(tetrahydro-2H-pyran-2-ylmethoxy)phosphinyl]methyl]-, ethyl ester], for which the “post-emergent herbicidal activity index” value in experiment [1] (2 WAT, 5.6 kg/h) is listed as 0 (0-24% control); in experiment [1] (4 WAT, 11.2 kg/h) it was 1 (25-49% control); in [2] (2 WAT, 5.6 kg/h) it was 0 (0-24% control); in experiment [2] (4 WAT, 11.2 kg/h), 0 (0-24% control); in experiment [3] (2 WAT, 5.6 kg/h) it was 0 (0-24% control); in experiment [3] (4 WAT, 11.2 kg/h) it was 0 (0-24% control). Further, the “post-emergent herbicidal activity index” value in experiment [4] (2 WAT, 5.6 kg/h) was 0 (0-24% control); in experiment [4] (4 WAT, 11.2 kg/h), 1 (25-49% control); in experiment [5] (2 WAT, 5.6 kg/h) it was 0 (0-24% control); in experiment [5] (4 WAT, 11.2 kg/h) it was 0 (0-24% control); in [6] (2 WAT, 5.6 kg/h), 0 (0-24% control); in experiment [6] (4 WAT, 11.2 kg/h) it was 0 (0-24% control). The “post-emergent herbicidal activity index” value in [7] (2 WAT, 5.6 kg/h) is recorded as 0 (0-24% control); in [7] (4 WAT, 11.2 kg/h), 0 (0-24% control); in experiment [8] (2 WAT, 5.6 kg/h), 0 (0-24% control); in [8] (4 WAT, 11.2 kg/h), 0 (0-24% control); in experiment [9] (2 WAT, 5.6 kg/h), 0 (0-24% control); in experiment [9] (4 WAT, 11.2 kg/h) it was 0 (0-24% control). The “post-emergent herbicidal activity index” value is 0 (0-24% control) in [10] (2 WAT, 5.6 kg/h); 0 (0-24% control) in experiment [11] (2 WAT, 5.6 kg/h); 1 (25-49% control) in experiment [11] (4 WAT, 11.2 kg/h).

In the case of `CCOC(=O)CNCP(=O)(O)OC(C)CC(=O)OCC` (stereo not shown) [Example 25], the “post-emergent herbicidal activity index” value in [1] (4 WAT, 5.6 kg/h) was 0 (0-24% control); in experiment [1] (4 WAT, 11.2 kg/h) it was 0 (0-24% control); in experiment [2] (4 WAT, 5.6 kg/h), 0 (0-24% control); in [2] (4 WAT, 11.2 kg/h) it was 1 (25-49% control); in [3] (4 WAT, 5.6 kg/h) it was 0 (0-24% control); in [3] (4 WAT, 11.2 kg/h), 1 (25-49% control). Besides, the “post-emergent herbicidal activity index” value in experiment [4] (4 WAT, 5.6 kg/h) is 1 (25-49% control); in experiment [4] (4 WAT, 11.2 kg/h), 2 (50-74% control); in [5] (4 WAT, 5.6 kg/h) it was 0 (0-24% control); in [5] (4 WAT, 11.2 kg/h), 2 (50-74% control); in [6] (4 WAT, 5.6 kg/h) it was 0 (0-24% control); in experiment [6] (4 WAT, 11.2 kg/h), 2 (50-74% control). The “post-emergent herbicidal activity index” value in experiment [7] (4 WAT, 5.6 kg/h) was 0 (0-24% control); in experiment [7] (4 WAT, 11.2 kg/h), 0 (0-24% control); in experiment [8] (4 WAT, 5.6 kg/h), 0 (0-24% control); in experiment [8] (4 WAT, 11.2 kg/h), 1 (25-49% control); in experiment [9] (4 WAT, 5.6 kg/h), 0 (0-24% control); in experiment [9] (4 WAT, 11.2 kg/h), 0 (0-24% control). The “post-emergent herbicidal activity index” value in experiment [10] (4 WAT, 5.6 kg/h) is 1 (25-49% control); in experiment [10] (4 WAT, 11.2 kg/h), 2 (50-74% control); in experiment [11] (4 WAT, 5.6 kg/h), 1 (25-49% control); in [11] (4 WAT, 11.2 kg/h), 2 (50-74% control).
